Reference: patent USRE48023E1, “Method for treating vascular-related disease” (EYEGENE INC., priority 2006, dated 2020)

Test system: mouse retinal angiogenesis
Assay: Mouse model for inducing retinal angiogenesis using oxygen partial pressure, FITC-dextran observation
Type: in vivo
Conditions: for blood leakage (FITC-dextran) / normal angiogenesis (FITC-dextran): administered intraperitoneally after 75% oxygen treatment; for abnormal angiogenesis: treated daily with 1 μg/kg

Substance	blood leakage (FITC-dextran)	normal angiogenesis (FITC-dextran)	abnormal angiogenesis	normal angiogenesis (FITC-dextran) (listed as polypeptide comprising a RAD sequence)
kistrin	blood leakage is reduced	normal angiogenesis is induced	abnormal angiogenesis was not observed	–
echistatin (ECESGPCCRNCKFLKEGTICKRARGDDMDDYCNGLTCDCPRNPHKGPAT; Peptide containing RGD sequence)	blood leakage is reduced	normal angiogenesis is induced	abnormal angiogenesis was not observed	–
SEQ ID NO: 3: polypeptide comprising a sequence RAD, used as the control (RADFV; Peptide Containing RAD Sequence) [reference compound]	–	normal angiogenesis is not induced	–	not also normally formed
SEQ ID NO: 2: peptide comprising a RGD sequence; sequence not printed in text (GFGRGDSPCA; Peptide Containing RGD Sequence)	blood leakage is reduced	normal angiogenesis is induced	abnormal angiogenesis was not observed	–
SEQ ID NO: 1: peptide comprising a RGD sequence; sequence not printed in text (RGDFV; Peptide Containing RGD Sequence)	blood leakage is reduced	normal angiogenesis is induced	abnormal angiogenesis was not observed	–
